Assay results: paper PMC8840612, “Inhibition of α-Glucosidase, Acetylcholinesterase, and Nitric Oxide Production by Phytochemicals Isolated from Millettia speciosa—In Vitro and Molecular Docking Studies” (Plants, 2022)
≈ marks a conversion by molar mass, not a printed value. Where two headings read alike, the source gives them in different places.

How the values were obtained:
[1] = test system: NO production in lipopolysaccharide (LPS)-stimulated RAW 264.7 cells; assay: Inhibition of NO production in LPS-stimulated RAW 264.7 cells (Griess assay); format: cell-based; details: for IC50 / inhibition at 500 µg/mL: Mus musculus; for IC50: RAW264.7, LPS-stimulated RAW 264.7 cells; for IC50 / IC50 for the inhibition of NO production: tested 0.8–500 µg/mL, mean of three replicates ± SD; for inhibition at 500 µg/mL: RAW264.7; for inhibition at 500 µg/mL / IC50 for the inhibition of NO production: LPS-stimulated RAW 264.7 cells
Experimental: It was supplemented with 10% fetal bovine serum (FBS) and incubated at 37 °C in humidified air with 5% CO2. […] Next, 100 μL of Griess reagent (50 μL of 1% (w/v) sulfanilamide in 5% (v/v) phosphoric acid and 50 μL of 0.1% (w/v) N-1-naphthylethylenediamine dihydrochloride) was added, and it was incubated at room temperature for about 10 min. The Griess Reagent System from Promega Cooperation (USA) was used to determine the presence of nitrite. The microplate reader was used to assess absorption at 540 nm. N^G-Methyl-L-arginine acetate (L-NMMA) (Sigma) was used as a positive control at doses of […]. […] The experiments were repeated at least three times independently.

[2] = target: acetylcholinesterase (AChE) (Homo sapiens, UniProt P22303); assay: biochemical
acetylcholinesterase (AChE), sequence (P22303 32-614): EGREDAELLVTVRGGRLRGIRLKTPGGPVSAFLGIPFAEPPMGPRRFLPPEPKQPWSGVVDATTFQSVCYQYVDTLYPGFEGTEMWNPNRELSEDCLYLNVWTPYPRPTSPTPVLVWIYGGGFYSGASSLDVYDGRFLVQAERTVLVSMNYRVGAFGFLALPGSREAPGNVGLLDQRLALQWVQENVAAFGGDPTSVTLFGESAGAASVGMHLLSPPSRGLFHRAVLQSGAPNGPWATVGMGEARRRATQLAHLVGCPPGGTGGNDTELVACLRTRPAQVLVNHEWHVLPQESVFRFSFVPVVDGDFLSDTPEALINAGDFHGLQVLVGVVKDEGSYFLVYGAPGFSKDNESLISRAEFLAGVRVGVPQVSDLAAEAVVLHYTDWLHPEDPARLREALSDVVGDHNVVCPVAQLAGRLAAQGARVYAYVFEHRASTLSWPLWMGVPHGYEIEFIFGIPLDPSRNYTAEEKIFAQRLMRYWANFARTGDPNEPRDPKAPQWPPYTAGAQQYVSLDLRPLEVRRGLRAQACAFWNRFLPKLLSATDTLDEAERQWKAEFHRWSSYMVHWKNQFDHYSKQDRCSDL
Experimental: The acetylcholinesterase activity was determined by a colorimetric assay based on Ellman’s methodology. […] They were dissolved in DMSO and then diluted with buffer (50 mM of Tris-HCl, with a pH of 8 containing 0.1 M NaCl), 0.1% bovine serum albumin (BSA), 25 µL of acetylthiocholine iodide. The plate was incubated at 25 °C for 15 min. […] Each assay was done in triplicate. The percentage of inhibition of AChE was determined by the following formula: Inhibition (%) = [(OD of control − OD of sample)/OD of control] × 100.

[3] = target: α-glucosidase from Saccharomyces cerevisiae (Saccharomyces cerevisiae, UniProt P53341); assay: In vitro α-glucosidase inhibition (p-NPG substrate); details: for IC50: IC50 for inhibition of α-glucosidase, tested 1–256 µg/mL, mean of three replicates ± SD; for inhibition at 1 µg/mL / inhibition at 4 µg/mL / inhibition at 16 µg/mL / inhibition at 64 µg/mL / inhibition at 256 µg/mL: read-out: α-Glucosidase Inhibition (%);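 on all read-outs here: yeast α-glucosidase at 0.2 U/mL with p-nitrophenyl α-D-glucopyranoside substrate in 100 mM potassium phosphate pH 6.8, product read by absorbance at 410 nm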
α-glucosidase from Saccharomyces cerevisiae, sequence (P53341 whole entry): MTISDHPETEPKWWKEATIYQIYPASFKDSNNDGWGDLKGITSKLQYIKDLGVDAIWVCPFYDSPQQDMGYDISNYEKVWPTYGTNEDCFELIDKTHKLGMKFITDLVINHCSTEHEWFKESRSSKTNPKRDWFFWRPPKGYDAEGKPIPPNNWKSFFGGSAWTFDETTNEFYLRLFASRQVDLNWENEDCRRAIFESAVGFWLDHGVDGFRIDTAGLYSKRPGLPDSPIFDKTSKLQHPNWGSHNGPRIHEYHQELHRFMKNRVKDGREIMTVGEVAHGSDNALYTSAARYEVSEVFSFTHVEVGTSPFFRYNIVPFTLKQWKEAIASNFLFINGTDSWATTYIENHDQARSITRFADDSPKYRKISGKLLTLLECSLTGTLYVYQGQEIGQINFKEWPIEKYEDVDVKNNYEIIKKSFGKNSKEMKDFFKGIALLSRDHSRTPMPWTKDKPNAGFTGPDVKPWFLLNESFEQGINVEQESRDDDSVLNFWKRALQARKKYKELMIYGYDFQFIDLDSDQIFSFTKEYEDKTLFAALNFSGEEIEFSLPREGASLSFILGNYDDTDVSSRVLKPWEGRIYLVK

RAW 264.7 cells = assay: Cell viability (MTT) assay for cytotoxicity; format: cell-based
Experimental: The cells were diluted to a suitable cell density. One hundred eighty microliters of the cells were added to each well of the plate and incubated at 37 °C, 5% CO2 for 72 h. After the incubation, 10 µL of MTT solution (5 mg/mL) was added. […] Cell viability was calculated based on the formula as follows:Cell viability (%) = [(OD Sample)/(OD Control)] × 100%, where OD is the optical density recorded at 540 nm.

α-glucosidase = details: cited from earlier work
NO formation = test system: NO formation; set-up: method as in doi:10.20307/nps.2019.25.1.34; details: at 40 µg/mL; ursolic acid isolated from Phryma leptostachya var. asiatica; cited from earlier work
NO production = details: at a high concentration of 1000 µM; cited from earlier work
[4] = tested 1 to 256 µg/mL, triplicate, read-out: IC50 for acetylcholinesterase inhibition (converted)
[5] = cell viability assay, concentrations as in NO assay

Structure (SMILES)	IC50 [1]	inhibition at 500 µg/mL [1]	IC50 [2]	Fold Change [3]	IC50 [3]	inhibition at 1 µg/mL [3]	inhibition at 4 µg/mL [3]	inhibition at 16 µg/mL [3]	inhibition at 64 µg/mL [3]	inhibition at 256 µg/mL [3]	IC50 for the inhibition of NO production [1]	IC50 [2, 4]	Cytotoxicity against RAW 264.7 cells (RAW 264.7 cells)	IC50 α-glucosidase (α-glucosidase; compounds isolated from Clinopodium taxifolium)	Manner of α-glucosidase inhibition (α-glucosidase)	Reduction of cell growth (RAW 264.7 cells; at 100 µg/mL, RAW 264.7 cells, MTT)	Cytotoxicity against RAW 264.7 cells (RAW 264.7 cells; [5])	Effect on NO formation (NO formation)	Blocking of NO production (NO production)
C[C@H]1C(=O)CC[C@@H]2[C@]1(C)CC[C@H]1[C@@]2(C)CC[C@@]2(C)[C@@H]3CC(C)(C)CC[C@]3(C)CC[C@]12C [Compound 1, friedelin]	> 500 µg/mL	37.6%	> 600 µM	<0.663	> 600 µM	1%	1%	13%	20%	23%	–	–	–	–	–	–	–	–	–
C[C@@H]1CC[C@]2(C(=O)O)CC[C@]3(C)C(=CC[C@@H]4[C@@]5(C)CC[C@H](O)[C@@](C)(CO)[C@@H]5CC[C@]43C)[C@@H]2[C@]1(C)O [Compound 2, rotundic acid]	241 µg/mL (≈ 494 µM)	–	–	<0.663	> 524 µM	1%	1%	1%	4%	33%	241.3 ± 8.2 µg/mL	> 524 µM	–	–	–	–	–	–	–
C[C@@H]1CC[C@]2(C(=O)O[C@@H]3O[C@H](CO)[C@@H](O)[C@H](O)[C@H]3O)CC[C@]3(C)C(=CC[C@@H]4[C@@]5(C)CC[C@H](O)[C@@](C)(CO)[C@@H]5CC[C@]43C)[C@@H]2[C@]1(C)O [Compound 3, pedunculoside]	273 ± 8.2 µg/mL (≈ 420 µM)	–	> 393 µM	0.918	284 µM	1%	3%	9.5%	32%	60.5%	–	–	without cytotoxicity	–	–	–	–	–	–
C[C@H]1[C@H](C)CC[C@]2(CO)CC[C@]3(C)C(=CC[C@@H]4[C@@]5(C)CC[C@H](O)C(C)(C)[C@@H]5CC[C@]43C)[C@H]12 [Compound 4, uvaol]	246 µg/mL (≈ 557 µM)	–	> 578 µM	–	–	–	–	–	–	–	246.5 ± 18.7 µg/mL	–	–	521.0 µg/mL (≈ 1180 µM)	–	–	–	–	–
C[C@H]1[C@H](C)CC[C@]2(C(=O)O)CC[C@]3(C)C(=CC[C@@H]4[C@@]5(C)CC[C@H](O)C(C)(C)[C@@H]5CC[C@]43C)[C@H]12 [Compound 5, ursolic acid]	43.9 ± 3.7 µg/mL (≈ 96.1 µM)	84%	–	–	2.41 µM	48.5%	91.5%	95%	98%	99%	–	17.5 µM	–	–	non-competitive	23.3%	moderate cytotoxicity	80.6%	–
CC(C)=CCC[C@](C)(O[C@@H]1O[C@H](CO[C@@H]2O[C@H](CO)[C@@H](O)[C@H](O)[C@H]2O)[C@@H](O)[C@H](O)[C@H]1O)[C@H]1CC[C@]2(C)[C@@H]1[C@H](O)C[C@@H]1[C@@]3(C)CC[C@H](O[C@@H]4O[C@H](CO)[C@@H](O)[C@H](O)[C@H]4O)C(C)(C)[C@@H]3CC[C@]12C [Compound 6, gypenoside XVII]	93.9 ± 5.4 µg/mL (≈ 99.1 µM)	–	> 270 µM	<0.663	> 270 µM	1%	5%	17%	21%	34%	–	–	–	–	–	–	no cytotoxicity	–	–
COc1ccc2c(c1)OC[C@H]1c3cc4c(cc3O[C@@H]21)OCO4 [Compound 7, pterocarpin]	229 ± 18.6 µg/mL (≈ 767 µM)	–	–	<0.663	> 858 µM	0%	3%	3%	12%	25%	–	> 858 µM	–	–	–	–	–	–	–
COc1cc(/C=C/CO)cc(OC)c1O[C@@H]1O[C@H](CO)[C@@H](O)[C@H](O)[C@H]1O [Compound 8, syringin]	303 ± 11 µg/mL (≈ 814 µM)	–	> 687 µM	<0.663	> 687 µM	0%	1%	8%	9%	12%	–	–	–	–	–	–	–	–	not blocked
O=c1c(-c2ccc(O)cc2)coc2cc(O[C@@H]3O[C@H](CO)[C@@H](O)[C@H](O)[C@H]3O)ccc12 [Compound 9, daidzin]	> 500 µg/mL	39.5%	> 615 µM	<0.663	> 615 µM	0%	0%	4%	10%	22%	–	–	–	–	–	–	–	–	–
C[C@@H]1O[C@@H](OC[C@H]2O[C@@H](Oc3c(-c4ccc(O)c(O)c4)oc4cc(O)cc(O)c4c3=O)[C@H](O)[C@@H](O)[C@@H]2O)[C@H](O)[C@H](O)[C@H]1O [Compound 10, rutin]	450 ± 5.2 µg/mL (≈ 736 µM)	–	419 µM	–	3.6 µM	34.5%	74%	78%	82.5%	85%	–	–	–	–	–	–	–	–	–
[H]/N=C(/NC)NCCC[C@H](N)C(=O)O [L-NMMA, N^G-Methyl-L-arginine acetate, reference compound]	8.6 µg/mL	–	–	–	–	–	–	–	–	–	–	–	–	–	–	–	–	–	–
C[C@H]1O[C@H](O[C@H]2[C@H](O)[C@@H](O)[C@@H](O[C@H]3[C@H](O)[C@@H](O)C(O)O[C@@H]3CO)O[C@@H]2CO)[C@H](O)[C@@H](O)[C@@H]1N[C@H]1C=C(CO)[C@@H](O)[C@H](O)[C@H]1O (stereo partly shown) [acarbose, reference compound]	–	–	–	–	–	0%	5%	18%	23%	72%	–	–	–	–	–	–	–	–	–
